Experimental findings from patent US20240000751A1, “STABLE ORAL FORMULATION CONTAINING 1-(3-CYANO-1-ISOPROPYL-INDOL-5-YL)PYRAZOLE-4-CARBOXYLIC ACID” (LG CHEM, LTD., priority 2020, published 2024) are described below.

The nature of the series: Stability of API and 1:1 API/excipient mixtures stored under accelerated conditions, residual assay of API by HPLC. The format is physicochemical. The conditions noted are these: mixture. As for the experimental part:
As disclosed in Table 1 below, after preparing a mixture by mixing API, 1-(3-cyano-1-isopropyl-indol-5-yl)pyrazol-4-carboxylic acid, with various types of excipients such as microcrystalline cellulose, the residual assay of API at the initial stage and after 1 month, 2 months, and 3 months storage, respectively, under accelerated conditions (40° C., 75% RH; relative humidity) were measured through the analysis method and process described below.
• HPLC analysis conditions are as follows: • Column: Inertsil ODS-2 (4.6×150 mm, 5 μm, GL Science) • Detector: 254 nm, UV • Flow Rate: […] • Injection Volume: […] • Column Temperature: 40° C. • Eluent • A: Acetonitril/Purified water/TFA(Trifluoroacetic acid)=40/60/0.1(v/v/v) • B: Acetonitril/Purified water/TFA=80/20/0.1(v/v/v)

`CC(C)n1cc(C#N)c2cc(-n3cc(C(=O)O)cn3)ccc21` [Comparative Example 1, 1-(3-cyano-1-isopropyl-indol-5-yl)pyrazol-4-carboxylic acid]: the “residual assay of API, 3 Months” value (after 3 months storage under accelerated conditions (40° C., 75% RH)) came to 98.7%. Besides, the “residual assay of API, Initial” value (initial stage, accelerated conditions (40° C., 75% RH)) stood at 98.7%.
